Data as given in patent US9855341B2, “Formulations and carrier systems including farnesylthiosalycylic moities” (University of Pittsburgh—Of the Commonwealth System of …, priority 2014, dated 2018).

Assays:
[1] = system: HCT-116 human colon carcinoma cell line; assay: In vitro cytotoxicity, HCT-116; format: cell-based; details: HCT-116 cells
Source text: Several cancer cell lines were included in the cytotoxicity studies including murine breast cancer cells 4T1.2, human colon carcinoma cell line HCT-116, and two human prostate cancer cell lines PC-3 and DU145. […] A similar result was obtained in human colon cancer cells, HCT-116 as illustrated in FIG. 3B. […] Without limitation to any mechanism, it is likely that FTS is much more readily released from PEG5KFTS2(L) by esterases following intracellular delivery.
Incorporation of an additional disulfide linkage into PEG5K-FTS2(L) led to further improvement in cytotoxicity. […] Without limitation to any mechanism, this observation may, for example, be a result of enhanced intracellular delivery of FTS via PEG5K-S—S-FTS2(L).
The cytotoxicity of drug-free PEG5K-Fmoc-FTS2 and PEG5K-FTS2 micelles was examined in 4T1.2 and HCT-116 tumor cells and compared to free FTS (see FIGS. 12A and 12B, respectively). […] Without limitation to any mechanism, it is likely that the cytotoxicity of PEG-FTS comes from the released FTS following intracellular delivery.
FIGS. 13A-C show the cytotoxicity of TAXOL and PTX formulated in PEG5K-Fmoc-FTS2 micelles in several cancer cell lines.
See Zhang, X.; et al., PEG-farnesylthiosalicylate conjugate as a nanomicellar carrier for delivery of paclitaxel. Bioconjug. Chem., 24, 464-72 (2013). The cytotoxicity of free PEG5K-FTS2, PEG5K-Fmoc-FTS2 and FTS was also examined.

[2] = system: 4T1.2 mouse breast cancer cell line; assay: In vitro cytotoxicity, 4T1.2; format: cell-based; details: 4T1.2 cells
[3] = system: PC-3 human prostate cancer cell line; assay: In vitro cytotoxicity, PC-3; format: cell-based; details: PC-3 cells
Source text: FIG. 9B illustrates cytotoxicity of FTS and FTS-amide in a PC-3 human prostate cancer cell line.
As described above, FTS and derivatives thereof can be used in the carrier agents hereof. In a number of embodiments (for example, for drug delivery), biologically active derivatives of FTS are used. […] Similar results were obtained in our in vitro cytotoxicity study with HCT-116 and PC-3 cancer cell lines (see FIGS. 9A and 9B).

[4] = Source text: Changes in body weight and mouse survival were monitored daily for two weeks. The MTD was defined as the maximal dose that causes neither greater than 15% of body weight loss nor mouse mortality within two weeks after administration. See Lu, J.; Huang, Y.; Zhao, W.; Marquez, R. T.; Meng, X.; Li, J.; Gao, X.; Venkataramanan, R.; Wang, Z.; Li, S., PEG-derivatized embelin as a nanomicellar carrier for delivery of paclitaxel to breast and prostate cancers. Biomaterials, 34, 1591-600 (2013).
[5] = mouse, in vivo, iv
Procedure: The blood samples were collected in heparinized tubes at different time points (3 min, 8 min, 15 min, 30 min, 1 h, 2 h, 4 h, 8 h, and 12 h) post-injection. The blood was centrifuged (2,500 rpm, 10 min) and plasma was collected for the analysis. […] Non-compartmental pharmacokinetic analysis was done by WinNonlin. […] At day 1 post-injection, tumor tissues and major organs were collected from the mice. The tissues were weighed and homogenized using Homogenizer PowerGen 500 (Fisher Scientific). […] The solutions were centrifuged (2,500 rpm, 10 min) and the supernatant was used for HPLC measurement.

[6] = system: human prostate cancer xenograft model (PC-3); assay: NIRF optical imaging biodistribution; details: PC-3 xenograft, i.v.
Procedure: Biodistribution and tumor-targeting efficiency of PEG5K-Fmoc-FTS2 micelles were tested in a human prostate cancer xenograft model (PC-3). DiD, a hydrophobic near infrared fluorescence (NIRF) dye with high penetration, low tissue absorption and scattering was loaded into the PEG5K-Fmoc-FTS2 micelles for tissue imaging. […] After last imaging at 96 h post-injection, tumors and major organs were excised for ex vivo imaging.
At indicated times (0.5 h, 6 h, 24 h, 48 h, 72 h and 96 h), the mice were scanned using a Carestream Molecular Imaging System, In vivo Multispectral FX PRO, with the excitation at 630 nm and the emission at 700 nm using a 30 s exposure time. The mice were anesthetized by isoflurane inhalation before each imaging. After 96 h, the mice were euthanized by CO2 overdose. The tumor and major organs were excised for ex vivo imaging.

CC(C)=CCC/C(C)=C/CC/C(C)=C/CSc1ccccc1C(=O)O [FTS, S-trans, trans-farnesylthiosalicylic acid]
cytotoxicity (tumor cell growth inhibition) [1]: inhibited the tumor cell growth in a concentration-dependent manner | cytotoxicity (tumor cell growth inhibition) [2]: inhibited the tumor cell growth in a concentration-dependent manner

CC(C)=CCC/C(C)=C/CC/C(C)=C/CSc1ccccc1C(N)=O [FTS-amide, S-trans, trans-farnesylthiosalicylic acid amide]
cytotoxicity (tumor cell growth inhibition) [3]: more effective than the parent compound in inhibiting the tumor cell growth | cytotoxicity (tumor cell growth inhibition) [1]: more effective than the parent compound in inhibiting the tumor cell growth

COc1cccc2c1C(=O)c1c(O)c3c(c(O)c1C2=O)C[C@@](O)(C(=O)CO)C[C@@H]3O[C@H]1C[C@H](N)[C@H](O)[C@H](C)O1 [DOX, doxorubicin]
decrease in the body weight ([4]; 15 mg DOX/kg): > 15% | mortality ([4]; 15 mg DOX/kg): death of all treated mice | tolerability ([4]; dose of 10 mg/kg (DOX)): well tolerated | Vd [5]: 7.34 L/kg

CCCCCCCCCCCCCCCCCCN1C(=CC=CC=CC2=[N+](CCCCCCCCCCCCCCCCCC)c3ccccc3C2(C)C)C(C)(C)c2ccccc21.[O-][Cl+3]([O-])([O-])[O-] [free DiD, 1,1′-dioctadecyl-3,3,3′,3′-tetramethylindodicarbocyanine perchlorate]
tumor accumulation (NIRF imaging) [6]: No obvious tumor accumulation
